This note sets out measurements from patent US20230263773A1, “COMBINATION THERAPY WITH DEOXYURIDINE TRIPHOSPHATASE INHIBITORS” (CV6 Therapeutics (NI) Limited, priority 2020, published 2023).

Assay [1] deals with PD-L1. Kind of assay: Total PD-L1 expression by Western blotting in cancer cell lines. The settings on record: 12.5 μM Compound A. The assay is classed as cell-based. The method, then:
Experimental Overview. Programmed death-ligand 1 (PD-L1) is a type 1 transmembrane protein that plays a major role in suppressing the innate and adaptive arms of the immune system. The PD-1/PD-L1 pathway represents an adaptive immune resistance mechanism exerted by tumor cells in response to endogenous immune anti-tumor activity and is a well-established therapeutic target in cancer therapy. Cancer cells were treated with vehicle control (DMSO), the fluoropyrimidine FUdR (also known as floxuridine) alone, Compound A alone, or the combination of Compound A and FUdR, and the expression level of the immune checkpoint protein PD-L1 was measured by both Western blotting and flow cytometry and compared to control. Cell lines assayed for total PD-L1 protein expression by Western blotting included, pancreatic cancer, PANC-1; non-small cell lung cancer, H460; colorectal cancer, HCT116; breast cancer, MCF-7; melanoma, MeWo. Two cell lines were advanced to analyze cell surface PD-L1 by flow cytometry, MCF-7 and PANC-1.
Western Blotting. Cells were cultured in the presence of the indicated concentrations of Compound A, 5-fluorodeoxyuridine (FUdR), or a combination of both in a P100 cell culture dishes for 12 or 24 hours. At the conclusion of specified time-points, cells were scraped in PBS containing NaF and Na3VO4, pelleted by centrifugation, washed with PBS and pelleted again. […] The concentration of the isolated supernatant was determined by BCA assay on a CLARIOstar microplate reader and the required volume of whole-cell lysate was denatured by the addition of Sample Buffer, Laemmli 2×Concentrate followed by boiling at 95° C. for 5 min. […] Images were analyzed in ImageJ to obtain PD-L1 relative density values which were normalised to relative density of loading control. Once the primary image acquisition was complete, the pre-cast gels and corresponding immunoblots were further imaged for total protein as a quality control measure following a UV-induced 1-minute reaction to produce fluorescence. […]
On the technique in general: Immunoblotting shows a protein as a band on a membrane.

Assay [2] has as its system HMGB1. Nature of the assay: Extracellular release of HMGB1 into cell culture media by ELISA. The settings on record: 12.5 μM Compound A, 1 μM FUdR; 24 hours. In kind it is cell-based. The source says:
Experimental Overview. High mobility group box 1 (HMGB1) is a nuclear non-histone chromatin-binding protein. The release of HMGB1 by immune cells or severely damaged cancer cells functions as an immunostimulatory chemokine and is a well-known damage-associated molecular pattern (DAMP). The release of HMGB1 during cell death is characteristic of immunogenic cell death, a sub-class of cell death that results in the potent stimulation of the innate and subsequently the stimulation of adaptive immune responses. HMGB1 functions as a pro-inflammatory cytokine-like factor and can form hetero-complexes with other immune regulators. HMGB1 binds to TLRs, RAGE and CXCR4 on immune cells stimulating chemotaxis and the secretion of pro-inflammatory factors. HCT116 colon carcinoma and JU77 mesothelioma cells were treated with vehicle control (DMSO), 12.5 μM Compound A, 1 μM FUdR, or the combination of 12.5 μM Compound A and 1 μM FUdR for 24 hours and the release of HMGB1 into the extracellular culture media was measured by ELISA.
Cell Line Model Selection and Preparation. The HCT116 cancer cell line was purchased from ATCC. JU77 cell line was a kind gift from Dr Dan Longley, QUB. Cells were cultured and expanded in humidified incubators at 5% CO2 until sufficient cells were available.
Drug Preparation and Treatments. All drugs/compounds were prepared freshly in cell culture media from 50 mM frozen stocks prior to treatment. Cells were seeded in 6-well culture dishes and allowed to adhere overnight before treatment with Compound A, FUdR, or Compound A in combination with FUdR. Additional wells were treated with doxorubicin to act as a positive inducer of HMGB1. Twenty-four hours after treatment, the media was aspirated and centrifuged (2500 rpm, 5 min, at 4° C.) to remove any cellular debris. The supernatant was collected for immediate processing or stored at −80° C. for later assay.
Detection of HMGB1 Release. HMGB1 was quantified using the HMGB1 ELISA kit (ST51011, IBL International). Enzyme conjugate (HMGB1 conjugated to peroxidase) and standard were reconstituted in 12 ml enzyme conjugate diluent, and 1 ml diluent buffer respectively and aliquots frozen at −80° C. until required. All reagents and samples were brought to room temperature immediately prior to use. A standard curve was prepared for the high sensitive detection range (0.313-10 ng/ml). 50 μl diluent buffer was pipetted into each well of the microtiter plate. 50 μl of standard, sample, positive control or negative control (diluent buffer) was pipetted, in duplicate, into respective wells as determined by the plate set up. The plate was covered with adhesive foil and incubated at 37° C. for 20 to 24 hours on an orbital shaker (450 rpm). Following the incubation period the incubation solution was discarded and the plate washed (5×300 μl per well). Excess wash buffer was removed by inversion on to a paper towel. 100 μl enzyme conjugate was added to each well, the plate covered with adhesive foil and incubated at 25° C. for 2 hours on an orbital shaker (450 rpm). Following the incubation the solution was discarded and the plate washed as before. Fresh color solution was prepared immediately prior to use and 100 μl added to each well using a multichannel pipette. The plate was then incubated for 30 minutes at room temperature. The color reaction was stopped by pipetting 100 μl of stop reagent to each well using a multichannel pipette. The plate was shaken gently to mix and the backs of the wells were cleaned using a lint-free tissue. The concentration of HMGB1 was determined on a CLARIOstar microplate reader by measuring the absorbance at 450 nm using a reference reading at 640 nm. Data was exported to Microsoft Excel for processing and statistical analysis consisting of one-way ANOVA with Tukey's Multiple Comparisons Test was performed in GraphPad Prism 6.
For orientation: ELISA stands for enzyme-linked immunosorbent assay.

Consider `O=c1[nH]c(=O)n([C@H]2C[C@H](O)[C@@H](CO)O2)cc1F` [FUdR], for which the “total PD-L1 expression in HCT116, MCF-7, PANC-1 and Mewo cell lines” value in assay [1] (1 μM FUdR, 12 and 24 hours, compared to control) is “significant increase”. In addition, in assay [1] (PD-L1 high at baseline, 1 μM FUdR), the “total PD-L1 expression in H460 cell line” value is “did not induce”. In assay [2], the “increase in concentration of HMGB1 in cell culture media compared to control, HCT116 cells” value was “no significant difference” and the “increase in concentration of HMGB1 in cell culture media compared to control, JU77 cells” value is recorded as “no significant difference”.

Consider `C[C@@H](NS(=O)(=O)CCCCCN1CC(=O)NC1=O)c1ccc(F)c(OCC2CC2)c1` [Compound A], for which the “total PD-L1 expression, all cell lines” value in assay [1] (MeWo, MCF-7, HCT116, H460, PANC-1, 12 and 24 hours) was “unchanged”. Besides, in assay [2], the “increase in concentration of HMGB1 in cell culture media compared to control, HCT116 cells” value was “no significant difference” and the “increase in concentration of HMGB1 in cell culture media compared to control, JU77 cells” value is “no significant difference”.
